Measured values reported in patent US5422341A, “Motilin-like polypeptides with gastrointestinal motor stimulating activity” (Ohmeda Pharmaceutical Products Division Inc., priority 1993, dated 1995).
Counter-ions that a name gives are not always drawn. Square brackets hold non-standard residues; d marks the D form. Peptide text beside a SMILES is read from it. * marks the point of attachment. X1 = C[N+](C)(C)[C@@H](Cc1ccccc1)C(=O)*; NMe2Phe = CN(C)[C@@H](Cc1ccccc1)C(=O)*; X4 = CCN(CC)[C@@H](Cc1ccccc1)C(=O)*; dCha = N[C@H](CC1CCCCC1)C(=O)O

Experiments:
motilin receptor = target: T1, motilin receptor (Oryctolagus cuniculus, UniProt G1T803); experiment: Determination of motilin receptor binding affinity (displacement of [125I-Tyr7, Nle13]motilin(porcine)); set-up: species or system rabbit; settings: negative logarithm of the concentration displacing 50% of [125I-Tyr7, Nle13]motilin(porcine) from rabbit antral smooth muscle membranes; read-out: pIC50 (converted)
T1 construct: from tissue; host or cells: rabbit antral smooth muscle membranes
T1 sequence (G1T803 1-400): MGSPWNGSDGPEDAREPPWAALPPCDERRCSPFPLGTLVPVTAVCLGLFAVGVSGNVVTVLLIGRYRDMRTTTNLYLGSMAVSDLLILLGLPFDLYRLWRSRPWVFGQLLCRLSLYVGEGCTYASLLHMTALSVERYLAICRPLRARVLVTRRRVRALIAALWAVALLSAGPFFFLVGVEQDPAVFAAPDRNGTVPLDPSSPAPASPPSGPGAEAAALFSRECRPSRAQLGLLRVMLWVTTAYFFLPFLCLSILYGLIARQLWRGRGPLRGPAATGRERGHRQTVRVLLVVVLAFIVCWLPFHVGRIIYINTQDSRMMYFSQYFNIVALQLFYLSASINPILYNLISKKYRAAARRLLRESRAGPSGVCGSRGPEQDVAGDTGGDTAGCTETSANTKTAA
Method: The motilin receptor binding affinity of the peptides of this invention was determined by using the general procedure of Bormans, Peelers and Vantrappen, Regul. […] Fitting was performed using the iterative least-squares procedure of the SAS-software package (SAS Institute, Inc., Cary, N.C., USA).

[1] = target: segments of rabbit duodenum (Oryctolagus cuniculus, UniProt G1T803); experiment: Rabbit duodenal smooth muscle strip tissue bath assay; assay type: cell-based; settings: negative logarithm of the dose giving 50% of the maximal response to motilin; isotonic contraction of rabbit duodenum segments
segments of rabbit duodenum, sequence (G1T803 1-400): as above
Method: The contractile response of segments of rabbit duodenum was determined isotonically in the tissue bath according to the procedure of Depoortere et at., J. Gastrointestinal Motility, 1, 150-159 (1989). The experimental protocol consisted of an equilibration period of 1 hour; a challenge with 10^-4 M acetylcholine followed by a wash-out period; a cumulative dose-response curve of a compound with, at the end, the addition of 10^-7 M motilin; and finally 10^-4 M acetylcholine. If the final response to 10^-4 M acetylcholine differed by more than 5% from the initial response, the results were discarded. The compounds were tested in the concentration range 10^-11 to 10^-4 M. The point corresponding to 50% of the maximal response to motilin (Emax) was determined by fitting the equation E=Emax (1+EC50 /[L]) through the data points. […] The dose giving 50% of the response is expressed using its negative logarithm (pEC50).

| IC50 (motilin receptor) [nM] | pEC50 [1] | SMILES |
| --- | --- | --- |
| 5.62 | 7.06 | CC[C@H](C)[C@H](NC(=O)[C@@H]1CCCN1C(=O)[C@@H](NC(=O)[C@@H](N)Cc1ccccc1)C(C)C)C(=O)N[C@@H](Cc1ccccc1)C(=O)N[C@H](C(=O)N[C@@H](Cc1ccc(O)cc1)C(=O)NCC(=O)N[C@@H](CCC(=O)O)C(=O)N[C@@H](CC(C)C)C(=O)N[C@@H](CCC(N)=O)C(=O)N[C@H](CCC(N)=O)C(=O)N[C@@H](CC(C)C)C(=O)N[C@@H](CCC(N)=O)C(=O)O)[C@@H](C)O [[D-Gln^12, Leu^13]pMOT(1-14)] (H-FVPIFTYGELQ[dQ]LQ-OH) |
| 1.66 | 7.67 | CC[C@H](C)[C@H](NC(=O)[C@@H]1CCCN1C(=O)[C@@H](NC(=O)[C@@H](N)Cc1ccccc1)C(C)C)C(=O)N[C@@H](Cc1ccccc1)C(=O)N[C@H](C(=O)N[C@@H](Cc1ccc(O)cc1)C(=O)NCC(=O)N[C@@H](CCC(=O)O)C(=O)N[C@@H](CC(C)C)C(=O)N[C@@H](CCC(N)=O)C(=O)N[C@H](CCCNC(=N)N)C(=O)N[C@@H](CC(C)C)C(=O)N[C@@H](CCC(N)=O)C(=O)N[C@@H](CCC(=O)O)C(=O)N[C@@H](CCCCN)C(=O)N[C@@H](CCC(=O)O)C(=O)N[C@@H](CCCNC(=N)N)C(=O)N[C@@H](CC(N)=O)C(=O)N[C@@H](CCCCN)C(=O)NCC(=O)N[C@@H](CCC(N)=O)C(=O)O)[C@@H](C)O [[D-Arg^12, Leu^13]pMOT(1-22)] |
| 0.977 | 7.74 | CC[C@H](C)[C@H](NC(=O)[C@@H]1CCCN1C(=O)[C@@H](NC(=O)[C@@H](N)Cc1ccccc1)C(C)C)C(=O)N[C@@H](Cc1ccccc1)C(=O)N[C@H](C(=O)N[C@@H](Cc1ccc(O)cc1)C(=O)NCC(=O)N[C@@H](CCC(=O)O)C(=O)N[C@@H](CC(C)C)C(=O)N[C@@H](CCC(N)=O)C(=O)N[C@H](CCCNC(=N)N)C(=O)N[C@@H](CC(C)C)C(=O)N[C@@H](CCC(N)=O)C(=O)O)[C@@H](C)O [[D-Arg^13, Leu^13]pMOT(1-14), [12-D-Arginine, 13-leucine]motilin-(1-14)-peptide (Porcine) Bis-trifiuoroacetate Salt] (H-FVPIFTYGELQ[dR]LQ-OH) |
| 8.91 | 7.29 | CC[C@H](C)[C@H](NC(=O)[C@@H]1CCCN1C(=O)[C@@H](NC(=O)[C@@H](N)Cc1ccccc1)C(C)C)C(=O)N[C@@H](Cc1ccccc1)C(=O)N[C@H](C(=O)N[C@@H](Cc1ccc(O)cc1)C(=O)NCC(=O)N[C@@H](CCC(=O)O)C(=O)N[C@@H](CC(C)C)C(=O)N[C@@H](CCC(N)=O)C(=O)N[C@H](C)C(=O)N[C@@H](CC(C)C)C(=O)N[C@@H](CCC(N)=O)C(=O)O)[C@@H](C)O [[D-Ala^12, Leu^13]pMOT(1-14)] (H-FVPIFTYGELQ[dA]LQ-OH) |
| 2.69 | 7.48 | CC[C@H](C)[C@H](NC(=O)[C@@H]1CCCN1C(=O)[C@@H](NC(=O)[C@H](Cc1ccccc1)[N+](C)(C)C)C(C)C)C(=O)N[C@@H](Cc1ccccc1)C(=O)N[C@H](C(=O)N[C@@H](Cc1ccc(O)cc1)C(=O)NCC(=O)N[C@@H](CCC(=O)O)C(=O)N[C@@H](CC(C)C)C(=O)N[C@@H](CCC(N)=O)C(=O)N[C@@H](CCCNC(=N)N)C(=O)N[C@@H](CC(C)C)C(=O)N[C@@H](CCC(N)=O)C(N)=O)[C@@H](C)O (X1-VPIFTYGELQRLQ-NH2) |
| 4.07 | 7.73 | CC[C@H](C)[C@H](NC(=O)[C@H](C)NC(=O)[C@@H](NC(=O)[C@H](Cc1ccccc1)N(C)C)C(C)C)C(=O)N[C@@H](Cc1ccccc1)C(=O)N[C@H](C(=O)N[C@@H](Cc1ccc(O)cc1)C(=O)NCC(=O)N[C@@H](CCC(=O)O)C(=O)N[C@@H](CC(C)C)C(=O)N[C@@H](C)C(=O)N[C@H](CCCNC(=N)N)C(=O)N[C@@H](CC(C)C)C(=O)N[C@H](CCCCN)C(N)=O)[C@@H](C)O (NMe2Phe-VAIFTYGELA[dR]L[dK]-NH2) |
| 3.89 | 7.54 | CC[C@H](C)[C@H](NC(=O)[C@@H]1CCCN1C(=O)[C@@H](NC(=O)[C@H](Cc1ccccc1)N(CC)CC)C(C)C)C(=O)N[C@@H](Cc1ccccc1)C(=O)N[C@H](C(=O)N[C@@H](Cc1ccc(O)cc1)C(=O)NCC(=O)N[C@@H](CCC(=O)O)C(=O)N[C@@H](CC(C)C)C(=O)N[C@@H](CCC(N)=O)C(=O)N[C@@H](CCCNC(=N)N)C(=O)N[C@@H](CC(C)C)C(=O)N[C@@H](CCC(N)=O)C(N)=O)[C@@H](C)O [[Et2 Phe^1, Leu^13]pMOT(1-14) amide] (X4-VPIFTYGELQRLQ-NH2) |
| 2.14 | 7.71 | CC[C@H](C)[C@H](NC(=O)[C@H](C)NC(=O)[C@@H](NC(=O)[C@@H](N)Cc1ccccc1)C(C)C)C(=O)N[C@@H](Cc1ccccc1)C(=O)N[C@H](C(=O)N[C@@H](Cc1ccc(O)cc1)C(=O)NCC(=O)N[C@@H](CCC(=O)O)C(=O)N[C@@H](CC(C)C)C(=O)N[C@@H](CCC(N)=O)C(=O)N[C@H](CCCNC(=N)N)C(=O)N[C@@H](CC(C)C)C(=O)N[C@@H](CCC(N)=O)C(=O)O)[C@@H](C)O [[Ala^3, D-Arg^ 12, Leu^13]pMOT(1-14)] (H-FVAIFTYGELQ[dR]LQ-OH) |
| 1.95 | 7.31 | CC[C@H](C)[C@H](NC(=O)[C@H](C)NC(=O)[C@@H](NC(=O)[C@H](Cc1ccccc1)[N+](C)(C)C)C(C)C)C(=O)N[C@@H](Cc1ccccc1)C(=O)N[C@H](C(=O)N[C@@H](Cc1ccc(O)cc1)C(=O)NCC(=O)N[C@@H](CCC(=O)O)C(=O)N[C@@H](CC(C)C)C(=O)N[C@@H](C)C(=O)N[C@H](CCCNC(=N)N)C(=O)N[C@@H](CC(C)C)C(=O)N[C@@H](CCC(N)=O)C(N)=O)[C@@H](C)O (X1-VAIFTYGELA[dR]LQ-NH2) |
| 1.45 | 7.22 | CC[C@H](C)[C@H](NC(=O)[C@H](C)NC(=O)[C@@H](NC(=O)[C@H](Cc1ccccc1)[N+](C)(C)C)C(C)C)C(=O)N[C@@H](Cc1ccccc1)C(=O)N[C@H](C(=O)N[C@@H](Cc1ccc(O)cc1)C(=O)NCC(=O)N[C@@H](CCC(=O)O)C(=O)N[C@@H](CC(C)C)C(=O)N[C@@H](C)C(=O)N[C@H](CCCNC(=N)N)C(=O)N[C@@H](CC(C)C)C(=O)N[C@H](CCC(N)=O)C(N)=O)[C@@H](C)O (X1-VAIFTYGELA[dR]L[dQ]-NH2) |
| 2.45 | 7.50 | CC[C@H](C)[C@H](NC(=O)[C@@H]1CCCN1C(=O)[C@@H](NC(=O)[C@@H](N)Cc1ccccc1)C(C)C)C(=O)N[C@@H](Cc1ccccc1)C(=O)N[C@H](C(=O)N[C@@H](Cc1ccc(O)cc1)C(=O)NCC(=O)N[C@@H](CCC(=O)O)C(=O)N[C@@H](CC(C)C)C(=O)N[C@@H](CCC(N)=O)C(=O)N[C@H](CCCNC(=N)N)C(=O)N[C@@H](CC(C)C)C(=O)N[C@@H](CCC(N)=O)C(N)=O)[C@@H](C)O [[D-Arg^13, Leu^13]pMOT(1-14) amide] (H-FVPIFTYGELQ[dR]LQ-NH2) |
| 8.51 | 6.92 | CC[C@H](C)[C@H](NC(=O)[C@@H]1CCCN1C(=O)[C@@H](NC(=O)[C@@H](N)Cc1ccccc1)C(C)C)C(=O)N[C@@H](Cc1ccccc1)C(=O)N[C@H](C(=O)N[C@@H](Cc1ccccc1)C(=O)NCC(=O)N[C@@H](CCC(=O)O)C(=O)N[C@@H](CC(C)C)C(=O)N[C@@H](CCC(N)=O)C(=O)N[C@H](CCCNC(=N)N)C(=O)N[C@@H](CC(C)C)C(=O)N[C@@H](CCC(N)=O)C(=O)O)[C@@H](C)O [[Phe^7, D-Arg^12, Leu^13]pMOT(1-14)] (H-FVPIFTFGELQ[dR]LQ-OH) |
| 0.933 | 7.25 | CC[C@H](C)[C@H](NC(=O)[C@H](C)NC(=O)[C@@H](NC(=O)[C@H](N)CC1CCCCC1)C(C)C)C(=O)N[C@@H](Cc1ccccc1)C(=O)N[C@H](C(=O)N[C@@H](Cc1ccc(O)cc1)C(=O)NCC(=O)N[C@@H](CCC(=O)O)C(=O)N[C@@H](CC(C)C)C(=O)N[C@@H](C)C(=O)N[C@H](CCCNC(=N)N)C(=O)N[C@@H](CC(C)C)C(=O)N[C@H](CCCCN)C(N)=O)[C@@H](C)O (H-[dCha]VAIFTYGELA[dR]L[dK]-NH2) |
| 7.59 | 6.82 | CC[C@H](C)[C@H](NC(=O)[C@@H]1CCCN1C(=O)[C@@H](NC(=O)[C@@H](N)Cc1ccccc1)C(C)C)C(=O)N[C@@H](Cc1ccccc1)C(=O)N[C@H](C(=O)N[C@@H](Cc1ccc(O)cc1)C(=O)NCC(=O)N[C@@H](CCC(=O)O)C(=O)N[C@@H](CC(C)C)C(=O)N[C@@H](CCC(N)=O)C(=O)N[C@H](CC(N)=O)C(=O)N[C@@H](CC(C)C)C(=O)N[C@@H](CCC(N)=O)C(=O)O)[C@@H](C)O [[D-Asn^12, Leu^13]pMOT(1-14)] (H-FVPIFTYGELQ[dN]LQ-OH) |
| 1.51 | 7.58 | CC[C@H](C)[C@H](NC(=O)[C@H](C)NC(=O)[C@@H](NC(=O)[C@H](Cc1ccccc1)[N+](C)(C)C)C(C)C)C(=O)N[C@@H](Cc1ccccc1)C(=O)N[C@H](C(=O)N[C@@H](Cc1ccc(O)cc1)C(=O)NCC(=O)N[C@@H](CCC(=O)O)C(=O)N[C@@H](CC(C)C)C(=O)N[C@@H](CCC(N)=O)C(=O)N[C@@H](CCCNC(=N)N)C(=O)N[C@@H](CC(C)C)C(=O)N[C@@H](CCCCN)C(N)=O)[C@@H](C)O (X1-VAIFTYGELQRLK-NH2) |
